Read-outs that look alike come from different tables or passages of the source.
Assay: oral bioavailability in dogs
Assay type: in vivo
Conditions: unformulated solid in a capsule dosage form, 5 mg/kg oral dose in dogs
Procedure: Dogs (beagle dogs, mixed sexes, weighing 7-14 kg) were fasted overnight prior to dosing, but were permitted water ad libitum. Each dog received a 100 µg/kg subcutaneous dose of histamine approximately 30 minutes prior to dosing. Each dog received a single dosage form corresponding to a 5 mg/kg dose of the drug. The dose was followed by approximately 10 milliliters of water. Blood samples were obtained from each animal prior to dosing and 0.25, 0.5, 1.0, 1.5, 2, 3, 4, 6, 8, 10, and 12 hours after drug administration. The plasma was separated from the red cells by centrifugation and frozen (-30 °C) until analysis. Concentrations of parent drug were determined by reverse phase HPLC with low wavelength UV detection following liquid-liquid extraction of the plasma samples. The parent drug area under the curve was calculated by the trapezoidal method over the time course of the study. The absolute bioavailability of each test composition was calculated by comparing the area under the curve after oral dosing to that obtained from a single intravenous dose. Each capsule or capsule composition was evaluated in a group containing at least six dogs; the values reported are averages for each group of dogs.

| bioavailability (dog, in vivo, read-out: bioavailability) [%] | bioavailability | Compound |
| --- | --- | --- |
| < 2 | – | CC(C)c1nc(CN(C)C(=O)NC(C(=O)NC(Cc2ccccc2)CC(O)C(Cc2ccccc2)NC(=O)OCc2cncs2)C(C)C)cs1 (centres unmarked) [bis-tosylate of a compound of formula I] |
| – | less than 2% | CC(C)c1nc(CN(C)C(=O)N[C@H](C(=O)N[C@@H](Cc2ccccc2)C[C@H](O)[C@H](Cc2ccccc2)NC(=O)OCc2cncs2)C(C)C)cs1 [compound of formula I] |
